Series [1] concerns Tobacco callus. Description: Tobacco callus growth on plates with AMPA or N-acetyl AMPA. It is filed as cell-based, Nicotiana tabacum cv. "Samsun". The following applies: plates with 0.1 mM or 0.4 mM, up to three weeks. Here is the method:
Tobacco callus was generated from leaf pieces of wild type Nicotiana tabacum cv. “Samsun” tobacco on MS104 plates (MS salts 4.3 g/l, sucrose 30 g/l, B5 vitamins 500X 2 ml/l, NAA 0.1 mg/l, and Bacto Agar […]). Callus tissue was applied to plates with or without AMPA and with or without N-acetyl AMPA. Plates contained AMPA or N-acetyl AMPA at concentrations of 0.1 mM or 0.4 mM. Plates were incubated for up to three weeks and monitored periodically.

Series [2] relates to Achromobacter sp. strain LBAA. Description: Glyphosate degradation pathway in resting cells. Here is the method: The glyphosate degradation pathway was characterized in resting cells of glyphosate-grown Achromobacter sp. strain LBAA according to the following procedure. Cells from a 100 ml culture of LBAA, grown in DF3S medium containing glucose, gluconate and citrate as carbon sources and with thiamine and Yeast Extract (0.01%) to supply trace requirements and with glyphosate at 0.2 mM as a phosphorous source, were harvested at a cell density of 200 Klett units, washed twice with 20 ml of DF3S medium and the equivalent of 20 ml of cells were resuspended in […] of the same medium containing [^14C]glyphosate (2.5 ml of 52 mCi/mmol, Amersham; CFA.745). The cell mix was incubated at 30° C. with shaking and 20 ml samples were withdrawn at various intervals. The samples were centrifuged to separate the cells from the broth supernatant. Both the supernatant and cell pellets were analyzed by HPLC.
Samples prepared in this way were analyzed by strong anion exchange (SAX) HPLC with radioisotope label detection to determine their levels of [^14C]-AMPA and N-acetyl-[^14C]-AMPA. Samples were injected using a Waters WISP autoinjector. Chromatographic profiles and quantitative data were collected using MACS2, Monsanto's automated chromatography data collection system. A Spherisorb S5 SAX, 250 mm×10 mm column, or an Alltech 5 micron, 250 mm×10 mm SAX column was used for the analyses. Solvents used were designated as solution A and solution B. Solution A contained 0.005M KH2PO4 adjusted to pH 2.0 with H3PO4 in 4% methanol. Solution B contained 0.10 M KH2PO4 adjusted to pH 2.0 with H3PO4 in 4% methanol. Each sample run time consisted of a step gradient program with an eluent flow rate of 3 ml per minute and a scintillation fluid (tradename ATOMFLOW, No. NEN-995 obtained from Packard Instruments) flow rate of 9 ml per minute. The HPLC solvent profile for distinguishing [^14C]-AMPA from N-acetyl-[^14C]-AMPA in each sample analyzed was represented by 100% solvent A at times zero through 5 minutes, then solvent B at 100% at time 5 minutes through 15 minutes, then 100% solvent A through 20 minutes at which time the column is prepared to receive another sample.
Cell pellets were first resuspended in DF3S medium made acidic by addition of 0.65N HCl, boiled for 5 minutes, then centrifuged briefly to provide a solution phase for HPLC analysis. Supernatants were treated similarly prior to HPLC analysis.
The GOX mediated glyphosate degradation pathway was elucidated further in a subsequent experiment where the metabolism of [^14C]AMPA was compared to that of [^14C]glyphosate as indicated above in resting cells harvested at 165 Klett units and resuspended at the equivalent of 15 ml cells per 100 ml DF3S medium. The samples were analyzed by HPLC and consisted of whole cultures acidified and treated as described above.

The test system of series [3] is E. coli GB993. As to the kind of experiment: Cell growth in MOPS medium with AMPA. Format: cell-based. The following applies: 0.2 mM AMPA, growth period 54 hrs. Here is the method: The phn operon is induced when E. coli is grown in media lacking or limited in a phosphate source. Therefore, E. coli GB993 was compared to the parental JM101 strain when grown in MOPS minimal media. GB993 and its mpu− parent strain, JM101, were grown under identical conditions, varying only the amount of phosphate available or supplemented with AMPA. 50 ml cultures were grown in duplicate in 250 ml sidearm-Erlenmeyer flasks with continuous shaking at 37° C. in MOPS medium (5 mls of 10×MOPS salts, 0.5 ml 1 mg/ml thiamin, 0.5 ml 20% glucose, to 50 mls with dH2O) containing 0.1 or 5 mM phosphate, or 0.1 mM phosphate supplemented with approximately 0.2 mM AMPA, pH 7.0. The cultures were generally grown to about 220 Klett units and the cells were pelleted by centrifugation, resuspended in 1.5 mls of 10 mM Tris/1 mM DTT, and lysed with two passes through a French press at […]. Lysates were centrifuged to remove debris and the supernatant passed through a G-50 column equilibrated with 50 mM Tris pH 7.0.

The test system of series [4] is recombinant cotton line 3753 (EPSPS/GOX). As to the kind of experiment: [^14C]-glyphosate metabolism in cotton line 3753. The settings on record: EPSPS/GOX Plants. Format: in vivo, cotton (Gossypium hirsutum L.). Here is the method:
The metabolism of [^14C]-glyphosate in recombinant cotton lines 4268 (GOX/PhnO) and 3753 (EPSPS/GOX) was also studied. Plants in this study were treated as indicated above for cotton line 4416, by applying droplets of ROUNDUP ULTRA fortified with [^14C]-glyphosate to a single leaf on each plant at the three to four leaf stage. Treated leaves were harvested and rinsed with water, then ground and extracted, and extracts were analyzed by HPLC as described above for the presence of [^14C]-glyphosate, [^14C]-AMPA, and N-acetyl-[^14C]-AMPA. New growth, including the meristem and new leaves that emerged following application were also extracted and analyzed.

Where [5] appears, read: whole cultures exposed two hours.

“And” between values parts separate entries of the source, which are not always exact repeats. Identical values can stand only once.

With `NCP(=O)(O)O` [AMPA, N-aminomethyl phosphonic acid], the “growth of tobacco callus tissue” value in series [1] is “severely inhibited”. Also, in series [2] (setting [5]), the “label as AMPA” value is 59%, the “label in the 13.2 minute peak (N-acetyl-AMPA)” value is listed as 18% and the “label in the methylamine/N-acetyl-methylamine peak” value came out at 15%. The “Harvest Density” value in series [3] is reported as 185 Klett Units.
In the case of N-phosphono-methyl-glycine [Glyphosate], in series [2] (two hours incubation), the “glyphosate found within the cell” value is “About 3%”; the “material co-eluting with the methylamine standard, of initial radioactivity in the cell contents” value is “about 1.5%”; the “material co-eluting with the methylamine standard, of initial radioactivity in the supernatant” value is “about 5%”; the “radioactivity in the glyphosate peak remaining in the supernatant, of the initial levels” value is “about 33%”. For the same compound, in series [2] (setting [5]), the “label as AMPA” value was 12.5%, the label as glyphosate was 30%, the “label in the 13.2 minute peak (N-acetyl-AMPA)” value is on record as 30% and the “label in the methylamine/N-acetyl-methylamine peak” value worked out at 25%. The “% [^14C] metabolite in New Growth Extract: N-Acetyl-AMPA” value in series [4] worked out at 1.9%. For the same compound, in series [4] (listed as [^14C]-Glyphosate), the “% [^14C] metabolite in Glyphosate Treated Leaf Extract: AMPA” value was 6-27%; the “% [^14C] metabolite in Glyphosate Treated Leaf Extract: Glyphosate” value is 59.8% and 92.7% and 81.2% and 86.2%; the “% [^14C] metabolite in Glyphosate Treated Leaf Extract: N-Acetyl-AMPA” value is 0.8% and 1.0%; the “% [^14C] metabolite in New Growth Extract: AMPA” value is recorded as 72-86%. The “% [^14C] metabolite in New Growth Extract: Glyphosate” value in series [4] (listed as [^14C]-Glyphosate) came out at 93%.

(Values after patent publication US7554012B2, “Plants and plant cells exhibiting resistance to AMPA, and methods for making the same” (priority 1998, dated 2009).)
